The values below come from PubChem BioAssay (NCI).

Molecules are shown by their SMILES.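 Five concentrations, 48 hours, 96-well plates. TGI marks complete inhibition of growth.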

What all share (test): DTP human tumour cell line panel, 48 h
The subject of assay [1] is DLD-1 colon.
In assay [2] the test system is DMS 114 small cell lung.
Assay [3] concerns DMS 273 small cell lung.
The test system of assay [4] is HOP-18 NSCLC.
In assay [5] the test system is IGROV1 ovarian.
For assay [6], the system named is KM20L2 colon.
In assay [7] the test system is LXFL 529 NSCLC.
Assay [8] relates to M19-MEL melanoma.
Assay [9] relates to MALME-3M melanoma.
Assay [10] deals with NCI-H226 lung.
For assay [11], the system named is NCI-H460 lung.
Assay [12] relates to RXF-631 renal.
Assay [13] concerns SK-OV-3 ovarian.
The test system of assay [14] is SNB-19 CNS.
The subject of assay [15] is SNB-78 CNS.
For assay [16], the system named is SW-620 colon.
Assay [17] concerns XF 498 CNS.

What is called TGI is the concentration at which net growth stops. Low readings indicate more potent growth arrest, high ones less potent growth arrest. `CC1=NN(C(=O)CC(=O)NC(=O)CC(=O)Nc2ccccc2F)C(=O)C1N=Nc1ccc([N+](=O)[O-])cc1` (centres undefined): the total growth inhibition concentration (TGI) was over 100 µM in assay [1]; 41 µM in [2]; over 100 µM in [3]; over 100 µM in [4]; over 100 µM in assay [5]; over 100 µM in assay [6]. Moreover, the TGI in assay [7] is over 100 µM; in assay [8], 92.8 µM; in [9], over 100 µM; in [10], over 100 µM; in assay [11], over 100 µM; in assay [12], over 100 µM. Also, the total growth inhibition concentration (TGI) in [13] is over 100 µM; in assay [14], over 100 µM; in assay [15] it was over 100 µM; in assay [16], 41.1 µM; in assay [17], 70.9 µM.
Turning to `N#CCCN(c1ccc(C=Nc2ccccc2Cl)cc1)S(=O)(=O)c1ccccc1`, the TGI in [1], in assay [2], in [3], in assay [4], in [5] and in assay [6] was over 100 µM each time. For the same compound, the total growth inhibition concentration (TGI) in assay [7], in assay [8], in assay [9], in [10], in assay [11] and in assay [12] was over 100 µM throughout. In addition, the concentration for total growth inhibition (TGI) in [13], in [14], in [15], in assay [16] and in assay [17] was over 100 µM in each case.
